{"source": "patent US20130133650A1", "about": "“GAS-BASED TREATMENT FOR INFECTIVE DISEASE” (priority 2010, published 2013)", "key": {"Mycobacterium bovis BCG": {"system": "Mycobacterium bovis BCG", "conditions": "cited from earlier work"}, "[1]": {"system": "M. tuberculosis H37Rv inside THP-1 macrophage-like cells", "assay": "Anaerobic shock of macrophage-like cells infected with M. tuberculosis, bacterial survival", "conditions": "treatment for the indicated times (FIG. 3(A))"}, "[2]": {"system": "THP-1 macrophage-like cells", "assay": "Viability of human macrophage-like cells following anaerobic shock (trypan blue exclusion)", "type": "cell-based", "conditions": "uninfected differentiated THP-1 cells, various treatment times (FIG. 3(B))", "experimental": "THP-1 cells were grown and induced for differentiation as above. The monolayer of differentiated macrophage-like cells was dispersed by trypsinization, after which cell suspensions were transferred to Vacutainer tubes and shocked with anaerobic gas as described for bacterial cultures. At various times, 20-microliter aliquots of suspended cells (˜10^6 cells/ml) were mixed with an equal volume of Trypan Blue staining solution (0.4% Trypan blue, Sigma Chemicals CO., St. Louis, Mo.)). Total and blue cell numbers were determined by light microscopy using a hemocytometer.\nPercent of white (live) cells was plotted relative to an untreated sample."}, "[3]": {"conditions": "rabbit, in vivo"}, "M. bovis BCG": {"system": "M. bovis BCG", "type": "cell-based, Mycobacterium bovis BCG", "conditions": "jar flushed with gas, 1-24 hour (FIG. 5)"}}}
{"compound": "NCCN(CCN)/[N+]([O-])=N/O", "note": "[DETA-NO, diethylene-triamine-nitric oxide adduct]", "values": [{"measurement": "effect of pretreatment on anaerobic shock-caused cell death", "setting": "Mycobacterium bovis BCG; pretreatment before anaerobic shock", "result": "not blocked"}, {"measurement": "duration of sustained growth arrest", "setting": "Mycobacterium bovis BCG; single treatment", "result": 72, "unit": "h"}]}
{"compound": "[Ar]", "note": "[argon]", "values": [{"measurement": "intracellular bacillary viability", "setting": "[1]", "result": "only reduced bacillary viability moderately"}, {"measurement": "macrophage viability (trypan blue exclusion)", "setting": "[2]", "result": "slightly reduced viability at long treatment times"}, {"measurement": "side-effect of one-lung anaerobic shock", "setting": "[3]", "result": "no obvious side-effect"}]}
{"compound": "[HH]", "note": "[hydrogen]", "values": [{"measurement": "killing of bacteria on agar surface", "setting": "M. bovis BCG", "result": "killed"}]}
